Measurements published in ChEMBL document CHEMBL1201862, “PubChem BioAssay data set” (2004).
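All cell lines were grown in 96-well plates and treated with compound for 48 hours. GI50 marks 50% less growth.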 The source made the active and inactive calls. No stated cut-off is given here; in the data, active = GI50 up to about 1.1 µM and inactive = higher.

What was measured:
Assay in all cases: growth of human tumour cells (NCI), 48 h
OVCAR-4 = test system: OVCAR-4
DMS-114 = test system: DMS-114
OVCAR-5 = test system: OVCAR-5
HCC 2998 = test system: HCC 2998
DLD-1 = test system: DLD-1
SK-MEL-5 = test system: SK-MEL-5
HT-29 = test system: HT-29
NCI-H23 = test system: NCI-H23
M14 = test system: M14
SR = test system: SR
OVCAR-8 = test system: OVCAR-8
SK-MEL-2 = test system: SK-MEL-2
UACC-62 = test system: UACC-62
LXFL 529 = test system: LXFL 529
SF-268 = test system: SF-268
HL-60 = test system: HL-60
NCI-H522 = test system: NCI-H522
SF-295 = test system: SF-295
SW-620 = test system: SW-620
ACHN = test system: ACHN
OVCAR-3 = test system: OVCAR-3
CAKI-1 = test system: CAKI-1
M19-MEL = test system: M19-MEL
U-251 = test system: U-251
HCT-15 = test system: HCT-15
COLO 205 = test system: COLO 205
SK-OV-3 = test system: SK-OV-3
SK-MEL-28 = test system: SK-MEL-28
CCRF-CEM = test system: CCRF-CEM
SN12C = test system: SN12C
RPMI-8226 = test system: RPMI-8226
HCT-116 = test system: HCT-116
K562 = test system: K562
KM12 = test system: KM12
UO-31 = test system: UO-31
786-0 = test system: 786-0
DMS-273 = test system: DMS-273
KM-20L2 = test system: KM-20L2
IGROV-1 = test system: IGROV-1
SNB-78 = test system: SNB-78
EKVX = test system: EKVX
HOP-62 = test system: HOP-62
SNB-19 = test system: SNB-19
HOP-18 = test system: HOP-18
Malme-3M = test system: Malme-3M
NCI-H226 = test system: NCI-H226
SNB-75 = test system: SNB-75
UACC-257 = test system: UACC-257
SF-539 = test system: SF-539
RXF 393 = test system: RXF 393
A549 = test system: A549
NCI-H460 = test system: NCI-H460
MOLT-4 = test system: MOLT-4
TK-10 = test system: TK-10
HOP-92 = test system: HOP-92
A498 = test system: A498
LOX IMVI = test system: LOX IMVI

Measured: GI50

COC1CC(OS(=O)(=O)c2ccc(C)cc2)C(OS(=O)(=O)c2ccc(C)cc2)C(COS(=O)(=O)c2ccc(C)cc2)O1 (centres undefined)
inactive: DMS-114 2.92 µM | OVCAR-5 11.3 µM | HCC 2998 12.8 µM | DLD-1 8.75 µM | SK-MEL-5 4.85 µM | HT-29 3.31 µM | NCI-H23 2.92 µM | M14 5.22 µM | SR 6.12 µM | OVCAR-8 1.82 µM | SK-MEL-2 6.85 µM | UACC-62 5.61 µM | LXFL 529 5.77 µM | HL-60 30.1 µM | NCI-H522 3.8 µM | SF-295 1.55 µM | SW-620 15.6 µM | ACHN 2.9 µM | OVCAR-3 1.89 µM | CAKI-1 2.72 µM | M19-MEL 7.38 µM | U-251 3.01 µM | COLO 205 37.9 µM | SK-OV-3 3.01 µM | SK-MEL-28 2.98 µM | CCRF-CEM 74.3 µM | SN12C 3.96 µM | RPMI-8226 19.4 µM | HCT-116 14.5 µM | K562 23.9 µM | KM12 52 µM | UO-31 3.76 µM | 786-0 1.6 µM | DMS-273 5.32 µM | KM-20L2 12.9 µM | IGROV-1 4.89 µM | SNB-78 5.46 µM | EKVX 11.2 µM | HOP-62 2.18 µM | SNB-19 2.22 µM | HOP-18 2.24 µM | Malme-3M 2.39 µM | NCI-H226 3.23 µM | UACC-257 8.89 µM | SF-539 1.88 µM | RXF 393 1.71 µM | A549 5.9 µM | NCI-H460 4.3 µM | MOLT-4 > 100 µM
5.35 µM: HCT-15
active: OVCAR-4 0.336 µM | SF-268 1.02 µM | SNB-75 0.535 µM

CCCCn1c2ccccc2c2ccc3c(c21)C(=O)C=CC3=O
> 100 µM: HCT-15
active: HT-29 0.991 µM | M19-MEL 0.185 µM | SNB-75 0.0521 µM
inactive: OVCAR-4 > 100 µM | DMS-114 > 100 µM | OVCAR-5 > 100 µM | HCC 2998 > 100 µM | DLD-1 > 100 µM | SK-MEL-5 > 100 µM | NCI-H23 > 100 µM | M14 > 100 µM | TK-10 > 100 µM | SR > 100 µM | OVCAR-8 > 100 µM | SK-MEL-2 > 100 µM | UACC-62 > 100 µM | LXFL 529 > 100 µM | SF-268 > 100 µM | NCI-H522 > 100 µM | SF-295 > 100 µM | SW-620 > 100 µM | ACHN > 100 µM | OVCAR-3 > 100 µM | CAKI-1 > 100 µM | U-251 > 100 µM | COLO 205 > 100 µM | SK-OV-3 > 100 µM | SK-MEL-28 > 100 µM | SN12C > 100 µM | RPMI-8226 > 100 µM | HCT-116 > 100 µM | K562 84.3 µM | KM12 > 100 µM | UO-31 62.2 µM | 786-0 > 100 µM | HOP-92 > 100 µM | DMS-273 > 100 µM | KM-20L2 > 100 µM | IGROV-1 > 100 µM | SNB-78 > 100 µM | HOP-62 > 100 µM | SNB-19 > 100 µM | HOP-18 > 100 µM | Malme-3M > 100 µM | NCI-H226 > 100 µM | UACC-257 > 100 µM | A498 > 100 µM | LOX IMVI > 100 µM | SF-539 > 100 µM | A549 > 100 µM | NCI-H460 > 100 µM | MOLT-4 54.8 µM

O=C1C[C@@H]2[C@@H](CCC23CC3)N1
inactive: OVCAR-4 > 100 µM | DMS-114 > 100 µM | OVCAR-5 > 100 µM | HCC 2998 > 100 µM | DLD-1 > 100 µM | SK-MEL-5 > 100 µM | HT-29 > 100 µM | NCI-H23 > 100 µM | M14 > 100 µM | TK-10 > 100 µM | OVCAR-8 > 100 µM | SK-MEL-2 > 100 µM | UACC-62 > 100 µM | LXFL 529 > 100 µM | SF-268 > 100 µM | HL-60 > 100 µM | NCI-H522 > 100 µM | SF-295 > 100 µM | SW-620 > 100 µM | OVCAR-3 > 100 µM | CAKI-1 > 100 µM | M19-MEL > 100 µM | U-251 > 100 µM | COLO 205 > 100 µM | SK-OV-3 > 100 µM | SK-MEL-28 > 100 µM | CCRF-CEM > 100 µM | SN12C > 100 µM | RPMI-8226 > 100 µM | HCT-116 > 100 µM | K562 > 100 µM | KM12 > 100 µM | UO-31 > 100 µM | 786-0 > 100 µM | DMS-273 > 100 µM | KM-20L2 > 100 µM | IGROV-1 > 100 µM | SNB-78 > 100 µM | EKVX > 100 µM | HOP-62 > 100 µM | SNB-19 > 100 µM | HOP-18 > 100 µM | Malme-3M > 100 µM | NCI-H226 > 100 µM | SNB-75 > 100 µM | UACC-257 > 100 µM | A498 > 100 µM | LOX IMVI > 100 µM | SF-539 > 100 µM | RXF 393 > 100 µM | A549 > 100 µM | NCI-H460 > 100 µM | MOLT-4 > 10 µM
